{"source": "patent US20250231157A1", "about": "“METHOD FOR DETERMINING THE PARTITION OF NAPHTHENIC ACIDS FROM A PRODUCTION WATER MIMICKING SYSTEM AND MIMICKING SYSTEM” (PETRÓLEO BRASILEIRO S.A. – PETROBRAS, priority 2023, published 2025)", "assay_type_in_all_cases": "physicochemical", "key": {"[1]": {"assay": "Partition equilibrium under the influence of salinity (NaCl), glass reactor, neutralization titration", "settings": "Salinity 0 (%, m · m^−1) NaCl"}, "[2]": {"assay": "Partition equilibrium under the influence of salinity (NaCl), glass reactor, neutralization titration", "settings": "for Salting out effect (reduction in the number of moles contained in the aqueous phase): 30% (m·v^−1) NaCl versus tests without salinity", "method": "The variation in salinity (and its effect on acidic species) is due to the large variation in salinity found between the portions of bottom-hole water, middle-well water and surface water. Thus, systems with salinity (i.e., NaCl) between 3.5 and 30% (m·v^−1) were tested in a glass reactor, and neutralization titration was performed (in triplicate analysis), as previously described. Furthermore, the experimental results were generated in triplicate, using 99% NaCl (Sigma-Aldrich) with five acidic species."}, "[3]": {"assay": "Partition equilibrium with addition of calcium and strontium salts to the aqueous phase", "settings": "for Effect of strontium ions on migration to the aqueous phase: strontium 400-2600 mg·L^−1", "method": "The addition of salts to the reaction system is of fundamental importance when one intends to mimic field conditions. In this sense, in addition to continuing the study of the salinity effect (Example 4), the insertion of salts containing Ca^2+ and Sr^2+ ions, known to be present in seawater, was tested. To this end, the projects were based on the literature (Zheng, J. et al. Offshore produced water management: A review of current practice and challenges in harsh/Arctic environments. Mar. Pol. Bul. 2016, 104, 7-19) and four concentrations of each of the two ions were evaluated (400.0, 1200.0, 2600.0 and 9000.0 mg·L^−1), maintaining salinity at 3.5% (m·v^−1).\nIn short, the experimental results were generated in triplicate, using 99% NaCl to add salinity to the aqueous fraction and PA calcium chloride and PA strontium chloride to add calcium and strontium, respectively.\nThe addition of calcium and strontium to the reaction system, in the form of salts, aims at mimicking the real scenario in which both species are present (regardless of the salinity of the medium), especially in the well condition. This study aimed at understanding the effect (on the migration of acids to the organic phase) of this ion in the system also at concentrations higher than 10 mM. Finally, the experiments (in triplicate) with divalent strontium ions followed the same rationale."}, "[4]": {"settings": "Salinity 3.5 (%, m · m^−1) NaCl"}, "[5]": {"settings": "Salinity 18.0 (%, m · m^−1) NaCl"}, "[6]": {"settings": "Salinity 30.0 (%, m · m^−1) NaCl"}, "[7]": {"settings": "Calcium 400 mg · L^−1, salinity 3.5%"}, "[8]": {"settings": "Calcium 1200 mg · L^−1, salinity 3.5%"}, "[9]": {"settings": "Calcium 2600 mg · L^−1, salinity 3.5%"}, "[10]": {"settings": "Strontium 400 mg · L^−1, salinity 3.5%"}, "[11]": {"settings": "Strontium 1200 mg · L^−1, salinity 3.5%"}, "[12]": {"settings": "Strontium 2600 mg · L^−1, salinity 3.5%"}}}
{"smiles": "O=C(O)c1ccccc1", "note": "[Benzoic Acid, benzoic acid]", "values": [{"measurement": "Migration", "setting": "[1]", "value": "82.9 %, mol"}, {"measurement": "Salting out effect (reduction in the number of moles contained in the aqueous phase)", "setting": "[2]", "value": "approximately 400%"}, {"measurement": "Migration", "setting": "[2]; [4]", "value": "83.0 %, mol"}, {"measurement": "Migration", "setting": "[2]; [5]", "value": "41.0 %, mol"}, {"measurement": "Migration", "setting": "[2]; [6]", "value": "22.5 %, mol"}, {"measurement": "Migration", "setting": "[2]; Salinity 30.0 (%, m · m^−1) NaCl, listed as benzoic acid", "value": "22.51 %, mol"}, {"measurement": "Migration", "setting": "[3]; Absence of ions, salinity 3.5%", "value": "82.0 %, mol"}, {"measurement": "Migration", "setting": "[3]; [7]", "value": "80.0 %, mol"}, {"measurement": "Migration", "setting": "[3]; [8]", "value": "56.7 %, mol"}, {"measurement": "Migration", "setting": "[3]; [9]", "value": "56.7 %, mol"}, {"measurement": "Migration", "setting": "[3]; [10]", "value": "83.0 %, mol"}, {"measurement": "Migration", "setting": "[3]; [11]", "value": "83.0 %, mol"}, {"measurement": "Migration", "setting": "[3]; [12]", "value": "83.0 %, mol"}, {"measurement": "Extent of salting out effect in the presence of calcium", "setting": "[3]; calcium ions, salinity 3.5%", "value": "greater than 30%"}, {"measurement": "Migration to the aqueous phase in the presence of strontium", "setting": "[3]; strontium ions", "value": "above 80 % (m·v^−1)"}]}
{"smiles": "O=C(O)CCCCC1CCCCC1", "note": "[Cyclohexanepentanoic Acid, cyclohexanepentanoic acid]", "values": [{"measurement": "Migration", "setting": "[1]", "value": "4.9 %, mol"}, {"measurement": "Migration to aqueous medium, approximate level over the salinity study", "setting": "[2]; 0-30% NaCl", "value": "~5", "unit": "%"}, {"measurement": "Effect of the addition of salinity on migration", "setting": "[2]; 3.5-30% NaCl, 95% reliability", "value": "no significant effect"}, {"measurement": "Migration", "setting": "[2]; [4]", "value": "5.5 %, mol"}, {"measurement": "Migration", "setting": "[2]; [5]", "value": "5.5 %, mol"}, {"measurement": "Migration", "setting": "[2]; [6]", "value": "4.8 %, mol"}, {"measurement": "Migration", "setting": "[3]; Absence of ions, salinity 3.5%", "value": "4.9 %, mol"}, {"measurement": "Migration", "setting": "[3]; [7]", "value": "5.5 %, mol"}, {"measurement": "Migration", "setting": "[3]; [8]", "value": "4.7 %, mol"}, {"measurement": "Migration", "setting": "[3]; [9]", "value": "4.8 %, mol"}, {"measurement": "Migration", "setting": "[3]; [10]", "value": "4.4 %, mol"}, {"measurement": "Migration", "setting": "[3]; [11]", "value": "5.3 %, mol"}, {"measurement": "Migration", "setting": "[3]; [12]", "value": "4.8 %, mol"}, {"measurement": "Effect of calcium ion on migration to the aqueous phase", "setting": "[3]; calcium up to the maximum study concentrations", "value": "no variation in migration"}, {"measurement": "Effect of strontium ions on migration to the aqueous phase", "setting": "[3]", "value": "no effect"}]}
{"smiles": "CCCCC(=O)O", "note": "[Pentanoic Acid, pentanoic acid]", "values": [{"measurement": "Migration", "setting": "[1]", "value": "76.7 %, mol"}, {"measurement": "Salting out effect (reduction in the number of moles contained in the aqueous phase)", "setting": "[2]", "value": "approximately 300%"}, {"measurement": "Migration", "setting": "[2]; [4]", "value": "73.3 %, mol"}, {"measurement": "Migration", "setting": "[2]; [5]", "value": "40.0 %, mol"}, {"measurement": "Migration", "setting": "[2]; [6]", "value": "23.3 %, mol"}, {"measurement": "Migration", "setting": "[3]; Absence of ions, salinity 3.5%", "value": "77.0 %, mol"}, {"measurement": "Migration", "setting": "[3]; [7]", "value": "90.0 %, mol"}, {"measurement": "Migration", "setting": "[3]; Calcium 400 mg · L^−1, salinity 3.5%, listed as pentanoic acid", "value": "~100 %, mol"}, {"measurement": "Migration", "setting": "[3]; [8]", "value": "98.7 %, mol"}, {"measurement": "Migration", "setting": "[3]; [9]", "value": "96.7 %, mol"}, {"measurement": "Migration", "setting": "[3]; [10]", "value": "100.0 %, mol"}, {"measurement": "Migration", "setting": "[3]; [11]", "value": "100.0 %, mol"}, {"measurement": "Migration", "setting": "[3]; [12]", "value": "100.0 %, mol"}, {"measurement": "Effect of strontium ions on migration to the aqueous phase", "setting": "[3]", "value": "increase in migration"}]}
